We go through twelve compounds from patent US20090238760A1, “ANTISPERMATOGENIC, SPERMICIDAL AND/OR ANTIFUNGAL COMPOSITION AND METHODS OF USING THE SAME” (Research Triangle Institute, priority 2006, published 2009).

Like-named read-outs stand apart in the source and are kept apart here.

Assay [1] addresses testes receptor (testis membranes). In words: Displacement of [125I]074(d) from rat testis membranes (Scatchard / displacement binding assay). Here is the method:
• 1. […] Homogenize the tissue for 20 sec with a Polytron tissue homogenizer (probe no. PTA 10S, 12 mm) at a medium setting (4-6 on a rheostat scale of 10) or until a smooth suspension is obtained. • 4. Pour the homogenate into a chilled 50 ml, centrifuge tube, and centrifuge at 0-4° C. and 500×g ( 1540 rpm in an […]) for 10 min. • 5. Decant the supernatant into clean 10 ml, centrifuge tubes, using multiple tubes as necessary. • 6. Centrifuge the decanted supernatant at 0-4° C. and 17000×g ( 11900 rpm in a Sorvall SS-34 rotor) for 12 min. • 7. Decant and discard the supernatants. […] Perform a total protein assay on resuspended pellet. The […] assay measures the binding of a radiolabeled test compound, over a wide concentration range, to the membrane receptors in both the absence (total binding) and presence (non-specific binding) of non-radioactive compound. Calculation of the resulting assay data yields the Kd of the test compound. • 1. Label 1.2 mL polypropylene tubes in duplicate for each [^125I]074(d) standard total binding and non-specific binding (NSB) determination and place in 96-well matrix test tube racks. Label liquid scintillation vials for free radioactivity determination. • 2. Prepare dilutions of the [^125I]074(d) ranging in concentration from approximately 1 to 200 nM or other desired concentration range. Prepare cold drug at a concentration of at least 100 times the level of the highest level of radiolabeled standard (e.g. 20-40 µM) for NSB determination. • 3. Set up the assay as follows: • 4. […] Add 0.1 mL (200 μg) to each assay tube. Vortex to mix. • 5. Incubate assay at 25° C. for 2 hours while gently shaking at 30-35 rpm (e.g. Precision Scientific Reciprocal Shaker or equivalent). • 6. […] Near the end of the incubation period, place a blank wash plate in the cell harvester (model MPXR-96T, Brandel Scientific, Gaithersburg, Md.). Place cold wash buffer in the reservoir supplying the harvester. Prime the harvester with buffer. Replace the dummy filter plate with the pre-soaked plate. • 8. At the end of the incubation period, remove tubes from incubator. Place the harvester prongs into the tubes, and vacuum to deposit the reaction mixture onto the filter plate. Rinse the reaction tubes 3-4 times with cold buffer and vacuum through the filter plate. • 9. Remove the filter plate from the harvester and allow it to dry thoroughly, using a warm oven if desired. • 10. Seal the bottom of the plate. Insert the plate into the cocktail dispenser and add cocktail (Micro-Scint 20, Perkin Elmer LAS, Shelton, Conn.) to each well • 11. Seal the top of the plate. Allow the plate to sit at least one hour or overnight and then count. • 1. For each level of standard, determine the CP Ms of free (essentially equivalent to total radioactivity added), total bound, and non-specific bound (NSB) compound. • 2. Subtract the NSB CPMs from the corresponding total CP Ms for each standard level to determine specific bound for each standard level. • 3. Convert the free, specific bound and non-specific bound CPMs to a mass basis (e.g. pM) using the specific activity, counter efficiency for the isotope ( 70% for ^125I in a Packard Model 1900TR. Liquid Scintillation Analyzer) and assay dilution factor of the labeled material. • 4. For each standard level, divide the level of compound specifically bound by the corresponding free amount added. • 5. For […] analysis, perform a linear regression analysis where x=specific bound compound and y=ratio of corresponding specific bound/free compound added. • 6. The Kd=-1/slope of the line generated. • 7. For illustrative purposes, a binding isotherm graph can be generated where x=free compound and y=total bound, non-specific bound and specific bound compound. The displacement assay measures the ability of a test drug, over a wide concentration range, to compete with and displace a constant amount of a known radiolabeled drug bound to the testes receptor. Calculation of the resulting assay data yields the Ki of the test drug. • 1. […]
For orientation: In a radioligand displacement assay an active substance lowers the binding of a labelled ligand.

Assay [2] has as its system testes / spermatogenesis in Swiss (CD-1) mice. To be noted: in words, Cook et al., cited from earlier work.
For assay [3] the test system is unchanged. The assay is described as follows: Spermatogenic Index test: testes weight and spermatogenic index after a single oral dose. The class given is in vivo, mouse. To be noted: male CD-1 mice, mean ± SEM; for Spermatogenic Index: 72 h, scale 1 to 6, 5 to 6 normal, vehicle control 5.5 ± 0.16; for Testes Weight: killed 72 h later, vehicle control 204 ± 11.9. Here is the method: The compounds of the invention were tested in mice for their effects on spermatogenesis three days after a single oral dose by the procedure described in Cook et al (J. Med. […] Compounds active in this test have been shown also to be anti-fertility compounds. Compounds were screened for antispermatogenic activity by dosing male mice on day 1 with a gavage dose of control vehicle, positive control (compound 1) or compound of the invention. At 72 h after dosing, animals were killed and the testes were excised, trimmed of fat, and weighed. One testis was examined histologically and rated for spermatogenic potential using the Spermatogenic Index [[…]. Noden, J. Cherry and […]. Reprod. […], 72, 277 (1984)], which is a semiquantitative estimate of the sperm producing ability of the testes. The index is based on histological appearance of the spermatogenic cells in the seminiferous tubules. A scale of 1 to 6 is used with 5 to 6 being the normal status. A second assessment was based on the weight of the testes. […] Compounds were given orally to 8-week old male CD-1 mice in a single dose. Seventy-two hours later the animals were killed and the testes weighed. One testis was subjected to histological analysis and scored according to the Spermatogenic Index (SI) of Fail (see Cook et ah, J. Med. […] RTI-4587-056(l), and a vehicle control group was also analyzed.

In assay [4] the test system is testes / spermatogenesis in rats. To be noted: single oral dose of 30 mg/kg to rats, within 24 h; cited from earlier work.
A further assay has as its system spermatogenesis. To be noted: oral administration to animals; cited from earlier work.
Setting [5] is: average Ki, 25° C., 2 hours, for 074(d) the Ki is a Kd.
[6] abbreviates: J. Med. Chem., 1997, 40, 2111-2112.

One may read the Ki as a dissociation constant, usually derived from enzyme kinetics or from competition with a known ligand. A higher Ki goes with lower affinity. In assay [1] (setting [5]), `CCN1CCC2C(C1)c1ccc(C)cc1C2c1ccc(C(=O)OC)cc1` (stereo not drawn) [RTI-4587-056(d)] displayed an inhibition constant (Ki) of 207 µM.

Consider `CCN1CCC2C(C1)c1ccc(C)cc1C2c1ccc(C(=O)O)cc1` (stereo not drawn) [RTI-4587-054(l)], for which the inhibition constant (Ki) in assay [1] was approximately 330 µM; in assay [1] (setting [5]), 329 µM. For the same compound, the “in vivo activity (antispermatogenic)” value in assay [2] (setting [6]) was “inactive”.

Consider `CCN1CC[C@H]2[C@H](c3ccc(C(=O)OC)cc3)c3cc(C)ccc3[C@H]2C1` [RTI-4587-056(l)], for which affinity in assay [1] (setting [5]) was put at a Ki of 2.7 µM. Moreover, in assay [3] (single oral dose 30 mg/kg, n=4), the “Spermatogenic Index” value came to 3.69 ± 0.07 and the “Testes Weight” value came to 173 ± 8.8 mg.

Consider `CCN1CCC2C(C1)c1cc(I)c(C)cc1C2c1ccc(C(=O)O)cc1` (stereo not drawn) [RTI-4587-074(d)], for which the Ki in assay [1] (setting [5]) was approximately 0.027 µM; in assay [1] (average Ki, 25° C., 2 hours, for 074(d) the Ki is a Kd, listed as 074(d)), 0.027 µM. In addition, in assay [2] (setting [6]), the “in vivo activity (antispermatogenic)” value is listed as “much greater in vivo activity”.

For `CCN1CC[C@H]2[C@H](c3ccc(C(=O)OC)cc3)c3cc(C)c(I)cc3[C@H]2C1` [RTI-4587-073(l), (4aS, 5R, 9bS)-5-(4-Carbomethoxyphenyl)-2-ethyl-2,3,4,4a,5,9b-hexahydro-8-iodo-7-methyl-1H-indeno[1,2-c]pyridine], the affinity in assay [1] (setting [5]) corresponds to a Ki of 0.32 µM. Further, in assay [3] (single oral dose 1 mg/kg, n=5), the “Spermatogenic Index” value was found to be 2.92 ± 0.15 and the “Testes Weight” value is on record as 144 ± 4.9 mg.

`CCN1CC[C@@H]2[C@@H](c3ccc(C(=O)OC)cc3)c3cc(C)c(I)cc3[C@@H]2C1` [RTI-4587-073(d)] yielded a Ki in assay [1] (setting [5]) of 67.3 µM.

`CCN1CCC2C(C1)c1ccc(C)cc1C2c1ccc(C)cc1` (stereo not drawn) [RTI-4587-002(d)] gave an inhibition constant (Ki) in assay [1] (as stated in the text, listed as -002(d)) of 6.1 µM. Further, in assay [2] (J. Med. Chem., 1997, 40, 2111-2112, listed as -002(d)), the “in vivo activity (antispermatogenic)” value is “bioactive”.

As to `CCN1CC[C@H]2[C@H](c3ccc(C(=O)OC)cc3)c3cc(C)c(C#Cc4ccccc4)cc3[C@H]2C1` [RTI-4587-109, (4aS, 5R,9bS)-5-(4-Carbomethoxyphenyl)-2-ethyl-2,3,4,4a,5,9b-hexahydro-7-methyl-8-(2-phenylethynyl)-1H-indeno[1,2-c]pyridine], in assay [3] (single oral dose 20 mg/kg, n=5), the “Spermatogenic Index” value turned out to be 4.26 ± 0.12 and the “Testes Weight” value was found to be 168.1 ± 16.4 mg.

On to `CCN1CCC2C(C1)c1ccc(C)cc1C2c1ccc(C)cc1` (stereo not drawn) [RTI-4587-002(l)], for which the Ki worked out at 66 µM in assay [1] (as stated in the text, listed as -002(l)) and 65.6 µM in assay [1] (setting [5]). Moreover, the “in vivo activity (antispermatogenic)” value in assay [2] (J. Med. Chem., 1997, 40, 2111-2112, listed as -002(l)) is “bioinactive”.

Take `CCN1CC[C@@H]2[C@@H](c3ccc(C)cc3)c3cc(C)ccc3[C@@H]2C1.Cl` [Sandoz 20-438]: the “weights of the testes” value in assay [4] is recorded as “drastically reducing”. The inhibition of spermatogenesis result in the assay with spermatogenesis was “reversible inhibition of spermatogenesis”.

For `C#Cc1cc2c(cc1C)[C@@H](c1ccc(C(=O)OC)cc1)[C@@H]1CCN(CC)C[C@H]21` [RTI-4587-107, (4aS, 5R, 9bS)-5-(4-Carbomethoxyphenyl)-2-ethyl-8-ethynyl-2,3,4,4a,5,9b-hexahydro-7-methyl-1H-indeno[1,2-c]pyridine], in assay [3] (single oral dose 20 mg/kg, n=5), the “Spermatogenic Index” value was 1.56 ± 0.20 and the “Testes Weight” value is 134.4 ± 7.0 mg.

In the case of `CCN1CCC2C(C1)c1ccc(C)cc1C2c1ccc(C(=O)O)cc1` (stereo not drawn) [RTI-4587-054(d)], the Ki in assay [1] was approximately 0.54 µM; in assay [1] (setting [5]) it was 0.54 µM.
